Earlier results as cited in patent US20220257490A1, “METHOD FOR DYEING KERATINOUS MATERIAL, COMPRISING THE USE OF AN ORGANOSILICON COMPOUND, A COLORED EFFECT PIGMENT AND A FILM-FORMING POLYMER IV” (Henkel AG & Co. KGaA, priority 2019, published 2022).

Details: 25° C.

Row | SMILES | solubility in water | solubility in water (in words)
1 | O=S(=O)([O-])c1ccc(N=Nc2c(O)ccc3ccccc23)cc1.[Na+] [Acid Orange 7, sodium salt of 4-[(2-hydroxy-1-naphthyl)azo]benzene sulphonate] | more than 7 g/L | –
2 | Nc1cc(S(=O)(=O)[O-])cc2cc(S(=O)(=O)[O-])c(N=Nc3ccccc3)c(O)c12.[Na+].[Na+] [Acid Red 33, disodium salt of 5-amino-4-hydroxy-3-(phenylazo)-naphthalene-2,7-disulphonate] | 2500 µg/mL | –
3 | O=C([O-])c1c(Cl)c(Cl)c(Cl)c(Cl)c1-c1c2c(Br)cc(=O)c(Br)c-2oc2c(Br)c(O)cc(Br)c12.O=C([O-])c1c(Cl)c(Cl)c(Cl)c(Cl)c1-c1c2c(Br)cc(=O)c(Br)c-2oc2c(Br)c(O)cc(Br)c12.[Na+].[Na+] [Acid Red 92, disodium salt of 3,4,5,6-tetrachloro-2-(1,4,5,8-tetrabromo-6-hydroxy-3-oxoxanthen-9-yl)benzoic acid] | greater than 10 g/L | –
4 | O=C([O-])C1=NN(c2ccc(S(=O)(=O)[O-])cc2)C(=O)C1N=Nc1ccc(S(=O)(=O)[O-])cc1.[Na+].[Na+].[Na+] (stereo not shown) [Acid Yellow 23, trisodium salt of 4,5-dihydro-5-oxo-1-(4-sulfophenyl)-4-((4-sulfophenyl)azo)-1H-pyrazole-3-carboxylic acid] | – | highly soluble in water
